Test results from article PMC7034945 (RSC Advances, 2019).

Tested on: HIV-1 NL4-3 virus
Assay: Anti-HIV-1 activity, multicycle assay with HIV-1 NL4-3 in TZM-bl cells
Format: cell-based
Conditions: for EC50: Human immunodeficiency virus 1, NL43, TZM-bl; for anti-HIV-1 activity (in words) / SI (selectivity index, ratio of CC50/EC50): TZM-bl cells; for anti-HIV-1 activity (in words): at the test concentration

Compound	EC50	anti-HIV-1 activity (in words)	SI (selectivity index, ratio of CC50/EC50) (Table 2)	SI (selectivity index, ratio of CC50/EC50) (Table 1)
COc1ccc(N(C)C(=O)[C@H](Cc2cc(F)cc(F)c2)NC(=O)c2cccc(-c3cn(CCc4ccsc4)nn3)c2)cc1 [II-10h, (S)-N-(3-(3,5-Difluorophenyl)-1-((4-methoxyphenyl)(methyl)amino)-1-oxopropan-2-yl)-3-(1-(2-(thiophen-3-yl)ethyl)-1H-1,2,3-triazol-4-yl)benzamide]	7.48 ± 2.83 µM	exhibited anti-HIV-1 activity at the test concentration	>4.44	–
COc1ccc(N(C)C(=O)[C@H](Cc2cc(F)cc(F)c2)NC(=O)c2cn(Cc3ccc([N+](=O)[O-])cc3)nn2)cc1 [I-8l, (S)-N-(3-(3,5-Difluorophenyl)-1-((4-methoxyphenyl)(methyl)amino)-1-oxopropan-2-yl)-1-(4-nitrobenzyl)-1H-1,2,3-triazole-4-carboxamide]	9.26 ± 2.54 µM	–	–	>1.96
COc1ccc(N(C)C(=O)[C@H](Cc2cc(F)cc(F)c2)NC(=O)c2cn(Cc3ccc(S(N)(=O)=O)cc3)nn2)cc1 [I-8r, (S)-N-(3-(3,5-Difluorophenyl)-1-((4-methoxyphenyl)(methyl)amino)-1-oxopropan-2-yl)-1-(4-sulfamoylbenzyl)-1H-1,2,3-triazole-4-carboxamide]	12.3 ± 2.39 µM	–	–	>1.39
COc1ccc(N(C)C(=O)[C@H](Cc2cc(F)cc(F)c2)NC(=O)c2cn(Cc3ccccc3[N+](=O)[O-])nn2)cc1 [I-8j, (S)-N-(3-(3,5-Difluorophenyl)-1-((4-methoxyphenyl)(methyl)amino)-1-oxopropan-2-yl)-1-(2-nitrobenzyl)-1H-1,2,3-triazole-4-carboxamide]	3.27 ± 0.78 µM	–	–	>5.55
COc1ccc(N(C)C(=O)[C@H](Cc2cc(F)cc(F)c2)NC(=O)c2cccc(-c3cn(CCCc4ccccc4)nn3)c2)cc1 [II-10g, (S)-N-(3-(3,5-Difluorophenyl)-1-((4-methoxyphenyl)(methyl)amino)-1-oxopropan-2-yl)-3-(1-(3-phenylpropyl)-1H-1,2,3-triazol-4-yl)benzamide]	> 32.8 µM	–	–	–
COc1ccc(N(C)C(=O)[C@H](Cc2cc(F)cc(F)c2)NC(=O)c2cn(Cc3ccccc3C)nn2)cc1 [I-8a, (S)-N-(3-(3,5-Difluorophenyl)-1-((4-methoxyphenyl)(methyl)amino)-1-oxopropan-2-yl)-1-(2-methylbenzyl)-1H-1,2,3-triazole-4-carboxamide]	8.85 ± 2.69 µM	–	–	>2.18
COc1ccc(N(C)C(=O)[C@H](Cc2cc(F)cc(F)c2)NC(=O)c2cn(Cc3cccc([N+](=O)[O-])c3)nn2)cc1 [I-8k, (S)-N-(3-(3,5-Difluorophenyl)-1-((4-methoxyphenyl)(methyl)amino)-1-oxopropan-2-yl)-1-(3-nitrobenzyl)-1H-1,2,3-triazole-4-carboxamide]	10 ± 1.76 µM	–	–	–
COc1ccc(N(C)C(=O)[C@H](Cc2cc(F)cc(F)c2)NC(=O)c2cn(-c3ccc4c(c3)OCO4)nn2)cc1 [I-8q, (S)-1-(Benzo[d][1,3]dioxol-5-yl)-N-(3-(3,5-difluorophenyl)-1-((4-methoxyphenyl)(methyl)amino)-1-oxopropan-2-yl)-1H-1,2,3-triazole-4-carboxamide]	9.15 ± 2.8 µM	–	–	>2.04
COc1ccc(N(C)C(=O)[C@H](Cc2cc(F)cc(F)c2)NC(=O)c2cccc(-c3cn(Cc4ccc(S(N)(=O)=O)cc4)nn3)c2)cc1 [II-10f, (S)-N-(3-(3,5-Difluorophenyl)-1-((4-methoxyphenyl)(methyl)amino)-1-oxopropan-2-yl)-3-(1-(4-sulfamoylbenzyl)-1H-1,2,3-triazol-4-yl)benzamide]	> 30.3 µM	–	–	–
COc1ccc(N(C)C(=O)[C@H](Cc2cc(F)cc(F)c2)NC(=O)c2cn(Cc3ccc(C#N)cc3)nn2)cc1 [I-8i, (S)-1-(4-Cyanobenzyl)-N-(3-(3,5-difluorophenyl)-1-((4-methoxyphenyl)(methyl)amino)-1-oxopropan-2-yl)-1H-1,2,3-triazole-4-carboxamide]	5.84 ± 1.53 µM	–	–	>3.23
COc1ccc(N(C)C(=O)[C@H](Cc2cc(F)cc(F)c2)NC(=O)c2cn(Cc3ccccc3C#N)nn2)cc1 [I-8g, (S)-1-(2-Cyanobenzyl)-N-(3-(3,5-difluorophenyl)-1-((4-methoxyphenyl)(methyl)amino)-1-oxopropan-2-yl)-1H-1,2,3-triazole-4-carboxamide]	9.61 ± 2.07 µM	–	–	>1.96
COc1ccc(N(C)C(=O)[C@H](Cc2cc(F)cc(F)c2)NC(=O)c2cn(Cc3ccccc3Cl)nn2)cc1 [I-8d, (S)-1-(2-Chlorobenzyl)-N-(3-(3,5-difluorophenyl)-1-((4-methoxyphenyl)(methyl)amino)-1-oxopropan-2-yl)-1H-1,2,3-triazole-4-carboxamide]	9.63 ± 2.04 µM	–	–	>1.92
CCOC(=O)Cn1cc(-c2cccc(C(=O)N[C@@H](Cc3cc(F)cc(F)c3)C(=O)N(C)c3ccc(OC)cc3)c2)nn1 [II-10m, Ethyl (S)-2-(4-(3-((3-(3,5-difluorophenyl)-1-((4-methoxyphenyl)(methyl)amino)-1-oxopropan-2-yl)carbamoyl)phenyl)-1H-1,2,3-triazol-1-yl)acetate]	–	lost anti-HIV-1 activity completely	–	–
(S)-N-(1-((4-Methoxyphenyl)(methyl)amino)-1-oxo-3-phenylpropan-2-yl)-3-(1-(naphthalen-1-ylmethyl)-1H-1,2,3-triazol-4-yl)benzamide [III-15l]	–	lost anti-HIV-1 activity completely	–	–
COc1ccc(N(C)C(=O)[C@H](Cc2cc(F)cc(F)c2)NC(=O)c2cccc(-c3cn(Cc4ccc(C(N)=O)cc4)nn3)c2)cc1 [II-10d, (S)-3-(1-(4-Carbamoylbenzyl)-1H-1,2,3-triazol-4-yl)-N-(3-(3,5-difluorophenyl)-1-((4-methoxyphenyl)(methyl)amino)-1-oxopropan-2-yl)benzamide]	23.4 ± 6.88 µM	exhibited anti-HIV-1 activity at the test concentration	>1.37	–
COc1ccc(N(C)C(=O)[C@H](Cc2cc(F)cc(F)c2)NC(=O)c2cn(Cc3ccc(Cl)cc3)nn2)cc1 [I-8f, (S)-1-(4-chlorobenzyl)-N-(3-(3,5-difluorophenyl)-1-((4-methoxyphenyl)(methyl)amino)-1-oxopropan-2-yl)-1H-1,2,3-triazole-4-carboxamide]	8.7 ± 1.65 µM	–	–	>2.13
COc1ccc(N(C)C(=O)[C@H](Cc2cc(F)cc(F)c2)NC(=O)c2cn(Cc3ccc4ccccc4c3)nn2)cc1 [I-8n, (S)-N-(3-(3,5-Difluorophenyl)-1-((4-methoxyphenyl)(methyl)amino)-1-oxopropan-2-yl)-1-(naphthalen-2-ylmethyl)-1H-1,2,3-triazole-4-carboxamide]	14.6 ± 2.34 µM	–	–	>1.23

The next lines start with results.

EC50	Compound	anti-HIV-1 activity (in words)	SI (selectivity index, ratio of CC50/EC50) (Table 2)	SI (selectivity index, ratio of CC50/EC50) (Table 1)
> 33.9 µM	COc1ccc(N(C)C(=O)[C@H](Cc2ccccc2)NC(=O)c2cccc(-c3cn(Cc4ccc([N+](=O)[O-])cc4)nn3)c2)cc1 [III-15c, (S)-N-(1-((4-Methoxyphenyl)(methyl)amino)-1-oxo-3-phenylpropan-2-yl)-3-(1-(4-nitrobenzyl)-1H-1,2,3-triazol-4-yl)benzamide]	–	–	–
> 33.6 µM	COc1ccc(N(C)C(=O)[C@H](Cc2ccccc2)NC(=O)c2cccc(-c3cn(Cc4cccc5ccccc45)nn3)c2)cc1 [III-15k, (S)-N-(1-((4-Methoxyphenyl)(methyl)amino)-1-oxo-3-phenylpropan-2-yl)-3-(1-(naphthalen-1-ylmethyl)-1H-1,2,3-triazol-4-yl)benzamide]	–	–	–
> 34.9 µM	COc1ccc(N(C)C(=O)[C@H](Cc2ccccc2)NC(=O)c2cccc(-c3cn(CCCc4ccccc4)nn3)c2)cc1 [III-15g, (S)-N-(1-((4-Methoxyphenyl)(methyl)amino)-1-oxo-3-phenylpropan-2-yl)-3-(1-(3-phenylpropyl)-1H-1,2,3-triazol-4-yl)benzamide]	–	–	–
> 33.9 µM	COc1ccc(N(C)C(=O)[C@H](Cc2ccccc2)NC(=O)c2cccc(-c3cn(Cc4ccccc4[N+](=O)[O-])nn3)c2)cc1 [III-15a, (S)-N-(1-((4-Methoxyphenyl)(methyl)amino)-1-oxo-3-phenylpropan-2-yl)-3-(1-(2-nitrobenzyl)-1H-1,2,3-triazol-4-yl)benzamide]	–	–	–
> 34 µM	COc1ccc(N(C)C(=O)[C@H](Cc2ccccc2)NC(=O)c2cccc(-c3cn(CC(=O)Nc4ccccc4)nn3)c2)cc1 [III-15e, (S)-N-(1-((4-Methoxyphenyl)(methyl)amino)-1-oxo-3-phenylpropan-2-yl)-3-(1-(2-oxo-2-(phenylamino)ethyl)-1H-1,2,3-triazol-4-yl)benzamide]	–	–	–
> 33.9 µM	COc1ccc(N(C)C(=O)[C@H](Cc2ccccc2)NC(=O)c2cccc(-c3cn(Cc4cccc([N+](=O)[O-])c4)nn3)c2)cc1 [III-15b, (S)-N-(1-((4-Methoxyphenyl)(methyl)amino)-1-oxo-3-phenylpropan-2-yl)-3-(1-(3-nitrobenzyl)-1H-1,2,3-triazol-4-yl)benzamide]	–	–	–
> 32 µM	COc1ccc(N(C)C(=O)[C@H](Cc2ccccc2)NC(=O)c2cccc(-c3cn(Cc4ccc(S(N)(=O)=O)cc4)nn3)c2)cc1 [III-15f, (S)-N-(1-((4-Methoxyphenyl)(methyl)amino)-1-oxo-3-phenylpropan-2-yl)-3-(1-(4-sulfamoylbenzyl)-1H-1,2,3-triazol-4-yl)benzamide]	–	–	–
> 31.7 µM	COc1ccc(N(C)C(=O)[C@H](Cc2cc(F)cc(F)c2)NC(=O)c2cccc(-c3cn(Cc4ccc5ccccc5c4)nn3)c2)cc1 [II-10j, (S)-N-(3-(3,5-Difluorophenyl)-1-((4-methoxyphenyl)(methyl)amino)-1-oxopropan-2-yl)-3-(1-(naphthalen-2-ylmethyl)-1H-1,2,3-triazol-4-yl)benzamide]	–	–	–
> 33.6 µM	COc1ccc(N(C)C(=O)[C@H](Cc2ccccc2)NC(=O)c2cccc(-c3cn(Cc4ccc5ccccc5c4)nn3)c2)cc1 [III-15j, (S)-N-(1-((4-Methoxyphenyl)(methyl)amino)-1-oxo-3-phenylpropan-2-yl)-3-(1-(naphthalen-2-ylmethyl)-1H-1,2,3-triazol-4-yl)benzamide]	–	–	–
